In patent US9249115B2, “N,N1 substituted piperazines having combined antiaggregant, anticoagulant and vasodilatory activity, and method for producing same” (Vertex Closed Joint Stock Company, priority 2011, dated 2016):

Columns and labels:
[1] = system: ADP-induced thrombocyte aggregation; test: ADP-induced thrombocyte aggregation, donor human thrombocyte enriched plasm; format: cell-based; details: ADP inductor; for MA, %: human thrombocyte plasm
Experimental: (§1) The study of antiaggregant and anticoagulant properties of N,N′-substituted piperazines on the sample of donor human blood. The blood was collected by donor ulnar vein punction with dry sharp needle without syringe. The administration of drugs that influence on thrombocyte function was cancelled in 7÷10 days before the experiment.
(§2) In graduated plastic centrifuge tube 1 ml of 3.8% basic trisodium citrate solution with pH=7.4 was placed. The ulnar vein was punctuated, the freely effluent blood was collected up to 10 ml mark, the mixture was instantly stirred to prevent air bubbles appearance. The collected and stabilized blood was split in two 5 ml portions in two tubes.
(§3) To obtain thrombocyte enriched plasm the stabilized blood was spinned at 1000 rpm (150 g) for 8 min at room temperature. The repeated spinning of the blood at 3200 rpm (2300 g) for 20 min at 22° C. yielded thrombocyte depleted plasm.
(§4) The study of anticoagulant activity was done within 2 h after thrombocyte enriched plasm obtaining. The plasm was normalized to achieve thrombocyte concentration of 200-250×10^9/L by addition of thrombocyte-free plasm. The concentration of thrombocytes was measured on SOLAR AR 2110 analyzer.
(§5) Antiaggregant properties of N,N′-substituted piperazines were evaluated by their influence on thrombocyte aggregation in tests with ADP-, collagen- and ristocetin-induced aggregation. To dissolve N,N′-substituted piperazines and to dilute reagents Tris-HCl-buffer with pH=7.4 was used.
(§6) As the general characteristic of thrombocyte aggregation activity the maximum amplitude (MA) of aggregation was taken on. That is the peak value of transmittance coefficient of the sample after aggregation agent introduction expressed in % relative to the transmittance of thrombocyte-free plasm. The response was registered on ascending linear segment of aggregation curve for 16 s.
(§7) The measurements were done using 4-channel CHRONO-LOG 490-4D analyzer (CHRONO-LOG, USA). The temperature in the cell was 37° C., the spinning speed of magnetic stirrer was 1200 rpm.
(§8) In a cuvette 0.5 ml of N,N′-substituted piperazine solution was placed, then 0.4 ml of normalized thrombocyte plasm was added. The mixture was stirred and incubated at 37° C. for 5 min. The cuvette was placed in aggregometer, then 0.05 ml of aggregation inductor solution was added (ADP or collagen or ristocetin). Thrombocyte aggregation was measured for 3 min.
ADP-induced reversible thrombocyte aggregation test utilized CHRONO-PAR ADP reagent (CHRONO-LOG, USA) with 10 mol concentration. Primary (reversible) thrombocyte aggregation was evaluated by the response on addition of ADP threshold dose (ADP concentration is 1 mol) to plasm.

[2] = system: Collagen-induced thrombocyte aggregation; test: Collagen-induced thrombocyte aggregation, donor human thrombocyte enriched plasm; format: cell-based; details: collagen inductor; for MA, %: human thrombocyte plasm; for inhibition at 500 µM / inhibition at 1250 µM / inhibition at 2500 µM / inhibition at 5000 µM: Homo sapiens, read-out: (MA0-MAx): MA0 * 100%
Experimental: as §1, §2, §3, §4, §5, §6, §7, §8
In collagen-induced thrombocyte aggregation test CHRONO-PAR COLLAGEN reagent (CHRONO-LOG, USA) was diluted with buffer solution until collagen concentration reached 10 µg/ml.

[3] = system: thrombocyte depleted plasm coagulation; test: Activated partial thromboplastin time (APTT), anticoagulant properties; format: biochemical, human; details: for APTT: thrombocyte depleted plasm
Experimental: as §1, §2, §3
To study anticoagulant properties of N,N′-substituted piperazines activated partial thromboplastin time (APTT) was measured. That is the ability of N,N′-substituted piperazines to increase thrombocyte depleted plasm coagulation time compared to the ability of control sample. The set of reagents for APTT determination (Russian Scientific Research Institute of Hematology and Transfusiology Ministry of Health of Russian Federation by Technical Regulation 9398-214-01966456-99) and COAG-A-MATE® XM coagulometer (ORGANON TEKNIKA, USA) were used.
The solutions of N,N′-substituted piperazines were mixed with thrombocyte depleted plasm at 1:1 ratio, then 0.1 ml of APTT reagent was added, the mixture was incubated in the cuvette for 5 min at 37° C., then 0.1 ml of 0.277% CaCl2 solution was added. The time of coagulation (in seconds) was measured.

[4] = Homo sapiens, 1.25 mmol/L, read-out: (MA0-MAx): MA0 * 100%
[5] = Homo sapiens, 2.50 mmol/L, read-out: (MA0-MAx): MA0 * 100%
[6] = Homo sapiens, 5.0 mmol/L, read-out: (MA0-MAx): MA0 * 100%

SMILES | MA, % ([1]; 1.25 mmol/L) [%] | MA, % ([1]; 2.50 mmol/L) [%] | MA, % ([1]; 5.0 mmol/L) [%] | inhibition at 1250 µM [1, 4] [%] | inhibition at 2500 µM [1, 5] [%] | inhibition at 5000 µM [1, 6] [%] | MA, % ([2]; 0.5 mmol/L) [%] | MA, % ([2]; 1.25 mmol/L) [%] | MA, % ([2]; 2.5 mmol/L) [%] | MA, % ([2]; 5.0 mmol/L) [%] | inhibition at 500 µM ([2]; 0.5 mmol/L) [%] | inhibition at 1250 µM ([2]; 1.25 mmol/L) [%] | inhibition at 2500 µM ([2]; 2.5 mmol/L) [%] | inhibition at 5000 µM ([2]; 5.0 mmol/L) [%] | further results
COc1ccc(C(=O)N2CCN(C(=N)NC(=N)N)CC2)c(OC)c1OC.Cl [Example 2, N-carbamidoyl-4-(2,3,4-trimethoxybenzoyl)piperazine-1-carboximidamide hydrochloride] | 15.0 ± 1.8 | 8.7 ± 2.2 | 3.1 ± 0.8 | 21.1 | 55 | 84.2 | 73.0 ± 7.3 | 65.10 ± 1.8 | 58.7 ± 2.9 | 24.1 ± 0.8 | 7.9 | 17.9 | 26 | 69.6 | –
COc1ccc(CN2CCN(C(=N)NC(=N)N)CC2)c(OC)c1OC.Cl [Example 4, N-carbamidoyl-4-(2,3,4-trimethoxybenzyl)piperazine-1-carboximidamide hydrochloride] | 10.6 ± 2.0 | 5.7 ± 1.1 | 1.7 ± 0.5 | 42.1 | 68.9 | 90.7 | – | 59.0 ± 5.9 | 52.2 ± 7.9 | 26.2 ± 3.5 | – | 22.1 | 31 | 65.4 | –
COc1cc(CN2CCN(C(=N)N)CC2)ccc1OCC(C)C.Cl [Example 12, 4-(4-(2-methylpropyloxy)-3-methoxybenzyl)piperazine-1-carboximidamide hydrochloride] | 5.1 ± 2.2 | 1.7 ± 0.3 | – | 67.5 | 89.2 | – | 71.9 ± 5.1 | 63.1 ± 9.1 | 55.4 ± 9.0 | 51.0 ± 7.1 | 6.5 | 16.8 | 28 | 35 | MA, % ([1]; 0.2 mmol/L): 14.1 ± 2.0%; MA, % ([1]; 0.5 mmol/L): 11.2 ± 3.3%; inhibition at 200 µM ([1]; Homo sapiens, 0.2 mmol/L, read-out: (MA0-MAx): MA0 * 100%): 10.2%; inhibition at 500 µM ([1]; Homo sapiens, 0.5 mmol/L, read-out: (MA0-MAx): MA0 * 100%): 28.7%; (APTTx-APTT0): APTT0 * 100% ([3]; 1.7 mmol/L): 9.4%; APTT ([3]; 1.7 mmol/L): 50.1 ± 4.0 s; (APTTx-APTT0): APTT0 * 100% ([3]; 2.5 mmol/L): 38.0%; APTT ([3]; 2.5 mmol/L): 63.2 ± 5.1 s; (APTTx-APTT0): APTT0 * 100% ([3]; 4.1 mmol/L): 53.3%; APTT ([3]; 4.1 mmol/L): 70.2 ± 3.2 s; (APTTx-APTT0): APTT0 * 100% ([3]; 8.3 mmol/L): 205.7%; APTT ([3]; 8.3 mmol/L): 140.0 ± 4.7 s
